Measurements taken from patent US10800732B2, “Substituted malonamides and their use as antibacterial drugs” (National Taiwan University, priority 2015, dated 2020).
Values after ≈ are worked out from the molar mass of the structure shown. Values joined by “and” are separate entries in the source; they are usually repeats but may differ in a detail not shown here. Equal values may be shown once. Read-outs that look alike come from different tables or passages of the source.

Legend:
S. aureus NCTC 8325 [1] = assay: MIC, S. aureus NCTC 8325 (CLSI broth microdilution / agar dilution); format: cell-based, Staphylococcus aureus
[2] = test system: S. epidermidis ATCC 12228; assay: MIC, S. epidermidis ATCC 12228; format: cell-based; conditions: S. epidermidis ATCC 12228
[3] = test system: S. epidermidis ATCC 35984; assay: MIC, S. epidermidis ATCC 35984; format: cell-based
MRSA ATCC 33592 = assay: MIC, MRSA ATCC 33592; format: cell-based, methicillin-resistant Staphylococcus aureus; conditions: MRSA ATCC 33592
MRSA ATCC 49476 = assay: MIC, MRSA ATCC 49476; format: cell-based, methicillin-resistant Staphylococcus aureus; conditions: MRSA ATCC 49476
MRSA SCCmec VT = assay: MIC, MRSA SCCmec VT; format: cell-based, methicillin-resistant Staphylococcus aureus
HEK-293 = assay: Antiproliferative activity, HEK-293; format: cell-based, human; conditions: for IC50: HEK-293, antiproliferative
Experimental: (§1) In addition to the antibacterial activities, the cytotoxic effects of these malonate derivatives on human cancer cell lines were also assessed.

K-562 = assay: Antiproliferative activity, K-562; format: cell-based, human; conditions: for IC50: K-562, antiproliferative
Experimental: as §1

HT-29 = assay: Antiproliferative activity, HT-29; format: cell-based, human; conditions: for IC50: HT-29, antiproliferative
Experimental: as §1

[4] = test system: S. haemolyticus (ATCC 29970); assay: MIC, S. haemolyticus; format: cell-based
S. hominis (ATCC 27844) = assay: MIC, S. hominis; format: cell-based
[5] = test system: S. intermedius (ATCC 29663); assay: MIC, S. intermedius; format: cell-based
[6] = test system: S. saprophyticus (ATCC 15305); assay: MIC, S. saprophyticus; format: cell-based
[7] = test system: S. lugdunesis (NTUH isolate); assay: MIC, S. lugdunesis; format: cell-based
VRSA (SJC1200) = assay: MIC, VRSA; format: cell-based, vancomycin-resistant Staphylococcus aureus; conditions: VRSA (SJC1200)
Clinical isolated MRSAs = assay: MIC90, one hundred clinical isolated MRSA strains; format: cell-based, methicillin-resistant Staphylococcus aureus; conditions: one hundred clinical isolated MRSA from NTUH, concentration that inhibits 90% of strains tested
[8] = test system: Enterococcus faecalis ATCC 19433; assay: MIC, Enterococcus faecalis; format: cell-based
[9] = test system: Enterococcus faecium ATCC 35667; assay: MIC, Enterococcus faecium ATCC 35667; format: cell-based
[10] = test system: Enterococcus faecium ATCC 19434; assay: MIC, Enterococcus faecium ATCC 19434; format: cell-based
VR-E. faecium = assay: MIC, VR-E. faecium; format: cell-based, vancomycin resistant Enterococcus faecium
[11] = test system: Bacillus cereus ATCC 11778; assay: MIC, Bacillus cereus; format: cell-based
[12] = test system: Bacillus subtilis BCRC 10255; assay: MIC, Bacillus subtilis; format: cell-based
[13] = test system: Corynebacterium diphtheriae ATCC 11913; assay: MIC, Corynebacterium diphtheriae; format: cell-based
[14] = test system: Listeria monocytogenes ATCC 19113; assay: MIC, Listeria monocytogenes; format: cell-based
[15] = test system: Streptococcus pyogenes ATCC 19615; assay: MIC, Streptococcus pyogenes; format: cell-based
[16] = test system: Clostridium difficile 630; assay: MIC, Clostridium difficile 630; format: cell-based
[17] = test system: Clostridium difficile R20291; assay: MIC, Clostridium difficile R20291; format: cell-based
[18] = test system: Mycobacterium tuberculosis H37Ra; assay: MIC, Mycobacterium tuberculosis; format: cell-based
S. aureus NCTC 8325 [19] = assay: Time-kill kinetics; format: cell-based, Staphylococcus aureus; conditions: for reduction in CFU: 24-h treatment period; for bactericidal / bacteriostatic classification: killing over 99.9% of inoculum within 24 hours
[20] = test system: MSSA ATCC 29213 or MRSA ATCC 33592; assay: Survival of MSSA- or MRSA-infected C. elegans; format: in vivo, Caenorhabditis elegans; conditions: 2- to 8-folds of MIC in S-medium, versus DMSO control
Experimental: (§2) FIG. 2. SC5005 protects C. elegans from S. aureus infection. Effect of SC78 and SC5005 on the survival of MSSA- or MRSA-infected C. elegans was assessed. The glp-4(bn2) C. elegans were fed on E. coli (OP50), MSSA (ATCC 29213) or MRSA (ATCC 33592) followed by exposing to SC78 or SC5005 at concentrations of 2-, 4-, 8-folds of respective MIC in S-medium. The survival of worms was monitored daily till the end of the study. The survival of animals fed with E. coli (OP50) and receiving DMSO only was served as a control to show the normal life-span of C. elegans.
Caenorhabditis elegans has been broadly used as a model host for the studies of human infectious diseases, including infections caused by S. aureus. To investigate whether SC78 and SC5005 can suppress the infection of S. aureus in C. elegans, worms were infected with MSSA ATCC 29213 or MRSA ATCC 33592 followed by exposing to individual drugs at concentrations of 2- to 8-folds of respective MIC in S-medium. Control groups were treated with DMSO at concentration equal to that of drug treated groups (final concentration, 0.1%).

C. elegans = assay: Toxic effects on E. coli (OP50)-fed C. elegans; format: in vivo, Caenorhabditis elegans; conditions: escalating doses in S-medium
Experimental: as §2
Meanwhile, the toxic effects of these agents on C. elegans were also assessed. E. coli (OP50)-fed worms were exposed to escalating doses of SC78 and SC5005 in S-medium followed by monitoring of their survival daily.

S. aureus NCTC 8325 [21] = format: cell-based, Staphylococcus aureus; conditions: 200-day exposure to sub-lethal concentrations
[22] = S. epidermidis (ATCC 35984), Table 3
[23] = Staphylococcus aureus, read-out: MIC
[24] = Clostridioides difficile, read-out: MIC

SMILES: O=C(Nc1ccc(Cl)c(C(F)(F)F)c1)Nc1ccc(Cl)c(C(F)(F)F)c1 [SC78]
- MIC (S. aureus NCTC 8325 [1]; S. aureus (NCTC 8325), Table 3): 0.25 µg/mL (≈ 0.599 µM)
- MIC (S. aureus NCTC 8325 [1]; S. aureus NCTC 8325, Table 2): 0.25 µg/mL (≈ 0.599 µM)
- MIC (S. aureus NCTC 8325 [1]; Staphylococcus aureus, NCTC8325, S. aureus NCTC 8325, read-out: MIC): 0.25 µg/mL (≈ 0.599 µM)
- MIC ([2]; Staphylococcus epidermidis, ATCC12228, read-out: MIC): 0.25 µg/mL (≈ 0.599 µM)
- MIC [3, 22]: 0.25 µg/mL (≈ 0.599 µM)
- MIC ([3]; Staphylococcus epidermidis, ATCC35984, S. epidermidis ATCC 35984, read-out: MIC): 0.25 µg/mL (≈ 0.599 µM)
- MIC (MRSA ATCC 33592; [23]): 0.25 µg/mL (≈ 0.599 µM)
- MIC (MRSA ATCC 49476; [23]): 25 µg/mL (≈ 59.9 µM)
- MIC (MRSA SCCmec VT; Staphylococcus aureus, MRSA SCCmec VT, read-out: MIC): 0.25 µg/mL (≈ 0.599 µM)
- IC50 (HEK-293; Homo sapiens, HEK293, read-out: IC50): 1.13 µg/mL (≈ 2.71 µM)
- Selectivity ratio (HEK-293; IC50 (HEK-293)/MIC against S. aureus): 4.52
- IC50 (K-562; Homo sapiens, K562, read-out: IC50): 4.73 µg/mL (≈ 11.3 µM)
- Selectivity ratio (K-562; IC50 (K-562)/MIC against S. aureus): 18.92
- IC50 (HT-29; Homo sapiens, read-out: IC50): 4.51 µg/mL (≈ 10.8 µM)
- Selectivity ratio (HT-29; IC50 (HT-29)/MIC against S. aureus): 18.04
- MIC ([4]; Staphylococcus haemolyticus, ATCC29970, read-out: MIC): 0.5 µg/mL (≈ 1.2 µM)
- MIC (S. hominis (ATCC 27844); Staphylococcus hominis, ATCC27844, read-out: MIC): 0.25 µg/mL (≈ 0.599 µM)
- MIC ([5]; read-out: MIC): 1 µg/mL (≈ 2.4 µM)
- MIC ([6]; Staphylococcus saprophyticus, ATCC15305, read-out: MIC): 0.25 µg/mL (≈ 0.599 µM)
- MIC ([7]; read-out: MIC): 0.25 µg/mL (≈ 0.599 µM)
- MIC (VRSA (SJC1200); [23]): 0.25 µg/mL (≈ 0.599 µM)
- MIC90 (Clinical isolated MRSAs; Staphylococcus aureus, read-out: MIC90): 0.25 µg/mL (≈ 0.599 µM)
- MIC ([8]; ATCC19433, read-out: MIC): 0.25 µg/mL (≈ 0.599 µM)
- MIC ([9]; ATCC35667, read-out: MIC): 0.25 µg/mL (≈ 0.599 µM)
- MIC ([10]; ATCC19434, read-out: MIC): 0.5 µg/mL (≈ 1.2 µM)
- MIC (VR-E. faecium; Enterococcus faecium, read-out: MIC): 0.25 µg/mL (≈ 0.599 µM)
- MIC ([11]; ATCC11778, read-out: MIC): 0.25 µg/mL (≈ 0.599 µM)
- MIC ([12]; BCRC10255, read-out: MIC): 0.25 µg/mL (≈ 0.599 µM)
- MIC ([13]; ATCC11913, read-out: MIC): 0.25 µg/mL (≈ 0.599 µM)
- MIC ([14]; ATCC19113, read-out: MIC): 0.0625 µg/mL (≈ 0.15 µM)
- MIC ([15]; ATCC19615, read-out: MIC): 0.25 µg/mL (≈ 0.599 µM)
- MIC [16, 24]: 0.5 µg/mL (≈ 1.2 µM)
- MIC [17, 24]: 0.25 µg/mL (≈ 0.599 µM)
- MIC ([18]; read-out: MIC): 1 µg/mL (≈ 2.4 µM)
- reduction in CFU (S. aureus NCTC 8325 [19]; 8-folds of MIC): over 99.9%
- bactericidal / bacteriostatic classification (S. aureus NCTC 8325 [19]): bactericidal
- survival of MSSA- or MRSA-infected worms [20]: no significant difference was observed in the survival
- survival of worms fed with OP50 (toxicity) (C. elegans): significantly decreased
- resistance after consecutive exposure (S. aureus NCTC 8325 [21]): no resistance was observed

SMILES: O=C(Nc1ccc(Cl)c(C(F)(F)F)c1)C(CCCl)C(=O)Nc1ccc(Cl)c(C(F)(F)F)c1 [SC5005]
- MIC (S. aureus NCTC 8325 [1]; MSSA NCTC 8325, Table 6): 0.5 µg/mL (≈ 0.958 µM)
- MIC (S. aureus NCTC 8325 [1]; S. aureus (NCTC 8325), Table 3): 0.5 µg/mL (≈ 0.958 µM)
- MIC (S. aureus NCTC 8325 [1]; S. aureus NCTC 8325): 0.5 µg/mL (≈ 0.958 µM)
- MIC (S. aureus NCTC 8325 [1]; S. aureus NCTC 8325, Table 2): 0.5 µg/mL (≈ 0.958 µM)
- MIC [2]: 0.5 µg/mL (≈ 0.958 µM)
- MIC [3, 22]: 0.5 µg/mL (≈ 0.958 µM)
- MIC ([3]; S. epidermidis ATCC 35984): 0.5 µg/mL (≈ 0.958 µM)
- MIC (MRSA ATCC 33592): 0.5 µg/mL (≈ 0.958 µM)
- MIC (MRSA ATCC 33592; Table 6): 0.5 µg/mL (≈ 0.958 µM)
- MIC (MRSA ATCC 49476): 0.5 µg/mL (≈ 0.958 µM)
- MIC (MRSA SCCmec VT; MRSA SCCmec VT): 0.5 µg/mL (≈ 0.958 µM)
- MIC (MRSA SCCmec VT; SCCmec VT, Table 6): 0.5 µg/mL (≈ 0.958 µM)
- IC50 (HEK-293): 16.79 µg/mL (≈ 32.2 µM)
- IC50 (K-562): 20.23 µg/mL (≈ 38.8 µM)
- IC50 (HT-29): 14.56 µg/mL (≈ 27.9 µM)
- MIC [4]: 1 µg/mL (≈ 1.92 µM)
- MIC (S. hominis (ATCC 27844)): 0.25 µg/mL (≈ 0.479 µM)
- MIC [5]: 1 µg/mL (≈ 1.92 µM)
- MIC [6]: 0.5 µg/mL (≈ 0.958 µM)
- MIC [7]: 0.5 µg/mL (≈ 0.958 µM)
- MIC (VRSA (SJC1200)): 0.5 µg/mL (≈ 0.958 µM)
- MIC90 (Clinical isolated MRSAs): 0.5 mg/L and 0.5^b mg/L
- MIC [8]: 0.5 µg/mL (≈ 0.958 µM)
- MIC [9]: 0.5 µg/mL (≈ 0.958 µM)
- MIC [10]: 1 µg/mL (≈ 1.92 µM)
- MIC (VR-E. faecium): 0.5 µg/mL (≈ 0.958 µM)
- MIC [11]: 0.5 µg/mL (≈ 0.958 µM)
- MIC [12]: 0.5 µg/mL (≈ 0.958 µM)
- MIC [13]: 0.5 µg/mL (≈ 0.958 µM)
- MIC [14]: 0.125 µg/mL (≈ 0.24 µM)
- MIC [15]: 0.5 µg/mL (≈ 0.958 µM)
- MIC [16]: 0.5 µg/mL (≈ 0.958 µM)
- MIC [17]: 0.5 µg/mL (≈ 0.958 µM)
- MIC [18]: 16 µg/mL (≈ 30.7 µM)
- reduction in CFU (S. aureus NCTC 8325 [19]; 4-folds of MIC): 99.91%
- reduction in CFU (S. aureus NCTC 8325 [19]; 8-folds of MIC): 99.95%
- bactericidal / bacteriostatic classification (S. aureus NCTC 8325 [19]): bactericidal
- survival of MSSA- or MRSA-infected worms [20]: significant increase in the mean survival
- survival of worms fed with OP50 (toxicity) (C. elegans): didn't affect the survival
- resistance after consecutive exposure (S. aureus NCTC 8325 [21]): no resistance was observed
